Experimental data published in ChEMBL document CHEMBL5331122, “Structure-Activity Relationship Study of Antimicrobial Peptide PE2 Delivered Novel Linear Derivatives with Potential of Eradicating Biofilms and Low Incidence of Drug Resistance” (J Med Chem, 2023).
Activity calls are given as the source filed them. The calls are words filed in the database; no cut-off is given here. Where a SMILES comes first, the peptide text is derived from it. Bridges are numbered along the chain shown (N, C = ends). [ ]: non-standard residue; d: D form. The star is where a group is joined. Heptanoyl(6-Me) = CC(C)CCCCC(=O)*; dDab = NCC[C@@H](N)C(=O)O; Dab = NCC[C@H](N)C(=O)O

How the values were obtained:
[1] = test system: Staphylococcus aureus; assay: Antibiofilm activity against Staphylococcus aureus ATCC 25923 assessed as biofilm eradication at 1 times MIC incubated for 24 hrs; assay type: functional, organism-based
[2] = test system: Escherichia coli; assay: Inhibition of biofilm formation in Escherichia coli ATCC 25922 assessed as inhibition of biofilm formation at 1/2 times MIC incubated for 24 hrs by crystal violet staining based analysis; assay type: functional, organism-based
[3] = test system: Staphylococcus aureus; assay: Antibiofilm activity against Staphylococcus aureus ATCC 25923 assessed as biofilm eradication at 8 times MIC incubated for 24 hrs; assay type: functional, organism-based
[4] = test system: Staphylococcus aureus; assay: Bactericidal activity against Staphylococcus aureus ATCC 25923 assessed as inhibition of bacterial growth at 1 times MIC measured upto 360 mins by time-kill assay; assay type: functional, organism-based
[5] = test system: Staphylococcus aureus; assay: Induction of membrane morphological changes in Staphylococcus aureus ATCC 25923 assessed as appearance of blistered bacterial cells at 4 times MIC measured at 0.5 to 2 hrs by SEM analysis; assay type: functional, organism-based; conditions: time 0.5-2 hrs
[6] = test system: Escherichia coli; assay: Antimicrobial activity against Escherichia coli ATCC 25922 assessed as reduction in microbial growth measured for 18 hrs in presence of 512 microg/ml LPS; assay type: functional, organism-based
[7] = test system: Escherichia coli; assay: Synergistic antibacterial activity against gentamycin-resistant Escherichia coli ATCC 25922 incubated for 18 hrs by checkerboard assay; assay type: functional, organism-based
[8] = test system: Escherichia coli; assay: Bactericidal activity against Escherichia coli ATCC 25922 assessed as inhibition of bacterial growth at 0.5 to 2 times MIC measured at 90 mins by time-kill assay; assay type: functional, organism-based
[9] = test system: Escherichia coli; assay: Inhibition of biofilm formation in Escherichia coli ATCC 25922 assessed as inhibition of biofilm formation incubated for 24 hrs by crystal violet staining based analysis; assay type: functional, organism-based
[10] = test system: Escherichia coli; assay: Induction of membrane morphological changes in Escherichia coli ATCC 25922 at 4 times MIC measured at 0.5 to 2 hrs by SEM analysis; assay type: functional, organism-based; conditions: time 0.5-2 hrs
[11] = test system: Cell membrane; assay: Induction of outer membrane permeabilization in Escherichia coli ATCC 25922 assessed as increase in fluorescence intensity at 4 times MIC measured for 12 hrs by NPN uptake assay; assay type: subcellular
[12] = test system: Staphylococcus aureus; assay: Additive antibacterial activity against Staphylococcus aureus ATCC 25923 assessed as bacterial growth inhibition incubated for 18 hrs in presence of gentamycin by checkerboard assay; assay type: functional, organism-based
[13] = test system: Staphylococcus aureus; assay: Bactericidal activity against Staphylococcus aureus ATCC 25923 assessed as inhibition of bacterial growth at 1/2 times MIC measured upto 360 mins by time-kill assay; assay type: functional, organism-based
[14] = test system: Staphylococcus aureus; assay: Inhibition of biofilm formation in Staphylococcus aureus ATCC 25923 assessed as inhibition of biofilm formation at 1/4 times MIC incubated for 24 hrs by crystal violet staining based analysis; assay type: functional, organism-based
[15] = test system: Klebsiella pneumoniae; assay: Antibacterial activity against Klebsiella pneumoniae ATCC 700603 infected in BALB/c mouse pneumonia model at 5 to 10 mg/kg, ip measured at 4 to 12 hrs; assay type: functional, organism-based; conditions: dose 5-10 mg/kg, time 4-12 hrs
[16] = test system: Escherichia coli; assay: Inhibition of biofilm formation in Escherichia coli ATCC 25922 assessed as inhibition of biofilm formation at 1/4 times MIC incubated for 24 hrs by crystal violet staining based analysis; assay type: functional, organism-based
[17] = test system: Cell membrane; assay: Induction of inner membrane permeabilization in Escherichia coli ML-35 ATCC 43837 assessed as increase in fluorescence intensity at 1 to 4 times MIC incubated upto 150 mins by ONPG staining based analysis; assay type: subcellular
[18] = test system: Staphylococcus aureus; assay: Bactericidal activity against Staphylococcus aureus ATCC 25923 assessed as inhibition of bacterial growth incubated upto 360 mins by time-kill assay; assay type: functional, organism-based
[19] = test system: Staphylococcus aureus; assay: Antibacterial activity against Staphylococcus aureus ATCC 25923 in presence of 10% mouse serum measured for 6 hrs; assay type: functional, organism-based
[20] = test system: Staphylococcus aureus; assay: Synergistic antibacterial activity against Staphylococcus aureus ATCC 25923 incubated for 18 hrs in presence of rifampicin by checkerboard assay; assay type: functional, organism-based
[21] = test system: Escherichia coli; assay: Bactericidal activity against Escherichia coli ATCC 25922 assessed as inhibition of bacterial growth incubated upto 360 mins by time-kill assay; assay type: functional, organism-based
[22] = test system: Staphylococcus aureus; assay: Antibiofilm activity against Staphylococcus aureus ATCC 25923 assessed as biofilm eradication at 4 times MIC incubated for 24 hrs; assay type: functional, organism-based
[23] = test system: Staphylococcus aureus; assay: Inhibition of biofilm formation in Staphylococcus aureus ATCC 25923 assessed as inhibition of biofilm formation at 1/2 times MIC incubated for 24 hrs by crystal violet staining based analysis; assay type: functional, organism-based
[24] = test system: Cell membrane; assay: Induction of outer membrane permeabilization in Escherichia coli ATCC 25922 assessed as increase in fluorescence intensity at 1 to 4 times MIC measured for 12 hrs by NPN uptake assay; assay type: subcellular
[25] = test system: Escherichia coli; assay: Additive antibacterial activity against Escherichia coli ATCC 25922 assessed as bacterial growth inhibition incubated for 18 hrs in presence of rifampicin by checkerboard assay; assay type: functional, organism-based
[26] = test system: Escherichia coli; assay: Bactericidal activity against Escherichia coli ATCC 25922 assessed as inhibition of bacterial growth at 2 times MIC measured upto 360 mins by time-kill assay; assay type: functional, organism-based
[27] = test system: Cell membrane; assay: Induction of cell membrane damage in Staphylococcus aureus ATCC 25923 at 2 times MIC measured at 30 mins by propidium iodide staining based flow cytometer assay; assay type: subcellular
[28] = test system: Staphylococcus aureus; assay: Bactericidal activity against Staphylococcus aureus ATCC 25923 assessed as inhibition of bacterial growth at 2 times MIC measured at 120 mins by time-kill assay; assay type: functional, organism-based
[29] = test system: Klebsiella pneumoniae; assay: Antibacterial activity against Klebsiella pneumoniae ATCC 700603 infected in BALB/c mouse pneumonia model assessed as reduction in lung bacterial load at 5 to 10 mg/kg, ip measured at 4 to 12 hrs; assay type: functional, organism-based; conditions: dose 5-10 mg/kg, time 4-12 hrs
[30] = test system: Staphylococcus aureus; assay: Additive antibacterial activity against Staphylococcus aureus ATCC 25923 assessed as bacterial growth inhibition incubated for 18 hrs in presence of rifampicin by checkerboard assay; assay type: functional, organism-based
[31] = test system: Staphylococcus aureus; assay: Synergistic antibacterial activity against Staphylococcus aureus ATCC 25923 incubated for 18 hrs in presence of gentamycin by checkerboard assay; assay type: functional, organism-based
[32] = test system: Escherichia coli; assay: Antimicrobial activity against Escherichia coli ATCC 25922 assessed as reduction in microbial growth measured for 18 hrs in presence of […] microg/ml LPS; assay type: functional, organism-based
[33] = test system: Staphylococcus aureus; assay: Induction of membrane morphological changes in Staphylococcus aureus ATCC 25923 assessed as appearance of adherent bacterial cells at 4 times MIC measured at 0.5 to 2 hrs by SEM analysis; assay type: functional, organism-based; conditions: time 0.5-2 hrs
[34] = test system: Cell membrane; assay: Induction of cell membrane damage in Escherichia coli ATCC 25922 at 2 times MIC after 0.5 to 2 hrs by propidium iodide staining based flow cytometer assay; assay type: subcellular; conditions: time 0.5-2 hrs
[35] = test system: Escherichia coli; assay: Bactericidal activity against Escherichia coli ATCC 25922 assessed as inhibition of bacterial growth at 1/2 times MIC measured at 180 mins by time-kill assay; assay type: functional, organism-based
[36] = test system: Escherichia coli; assay: Antibacterial activity against Escherichia coli ATCC 25922 in presence of 10% mouse serum measured for 6 hrs; assay type: functional, organism-based
[37] = test system: Cell membrane; assay: Induction of outer membrane permeabilization in Escherichia coli ATCC 25922 assessed as increase in fluorescence intensity at 2 times MIC measured for 12 hrs by NPN uptake assay; assay type: subcellular
[38] = test system: Escherichia coli; assay: Bactericidal activity against Escherichia coli ATCC 25922 assessed as inhibition of bacterial growth at 0.5 to 2 times MIC by time-kill assay; assay type: functional, organism-based; conditions: time <= 360.0 min, TDE = time-dependent effect
[39] = test system: Escherichia coli; assay: Synergistic antibacterial activity against rifampicin-resistant Escherichia coli ATCC 25922 incubated for 18 hrs by checkerboard assay; assay type: functional, organism-based
[40] = test system: Staphylococcus aureus; assay: Induction of membrane morphological changes in Staphylococcus aureus ATCC 25923 at 4 times MIC measured at 0.5 to 2 hrs by SEM analysis; assay type: functional, organism-based; conditions: time 0.5-2 hrs
[41] = test system: Staphylococcus aureus; assay: Bactericidal activity against Staphylococcus aureus ATCC 25923 assessed as inhibition of bacterial growth at 0.5 to 2 times MIC by time-kill assay; assay type: functional, organism-based; conditions: time <= 360.0 min, TDE = time-dependent effect
[42] = test system: Staphylococcus aureus; assay: Induction of membrane morphological changes in Staphylococcus aureus ATCC 25923 assessed as appearance of broken bacterial cells at 4 times MIC measured at 0.5 to 2 hrs by SEM analysis; assay type: functional, organism-based; conditions: time 0.5-2 hrs
[43] = test system: Escherichia coli; assay: Additive antibacterial activity against Escherichia coli ATCC 25922 assessed as bacterial growth inhibition incubated for 18 hrs in presence of gentamycin by checkerboard assay; assay type: functional, organism-based
[44] = test system: Escherichia coli; assay: Bactericidal activity against Escherichia coli ATCC 25922 assessed as inhibition of bacterial growth at 1 times MIC measured at 120 mins by time-kill assay; assay type: functional, organism-based
[45] = test system: Staphylococcus aureus; assay: Bactericidal activity against Staphylococcus aureus ATCC 25923 assessed as inhibition of bacterial growth at 2 times MIC measured upto 360 mins by time-kill assay; assay type: functional, organism-based
[46] = test system: Escherichia coli; assay: Inhibition of biofilm formation in Escherichia coli ATCC 25922 assessed as inhibition of biofilm formation at 1 to 2 times MIC incubated for 24 hrs by crystal violet staining based analysis; assay type: functional, organism-based
[47] = test system: Staphylococcus aureus; assay: Induction of drug resistance against Staphylococcus aureus ATCC 25923 measured upto 15 passages by sequential passaging method; assay type: functional
[48] = test system: Cell membrane; assay: Induction of cell membrane damage in Staphylococcus aureus ATCC 25923 at 2 times MIC after 0.5 to 2 hrs by propidium iodide staining based flow cytometer assay; assay type: subcellular; conditions: time 0.5-2 hrs
[49] = test system: Staphylococcus aureus; assay: Inhibition of biofilm formation in Staphylococcus aureus ATCC 25923 assessed as inhibition of biofilm formation at 1 times MIC incubated for 24 hrs by crystal violet staining based analysis; assay type: functional, organism-based
[50] = test system: Erythrocyte; assay: Hemolytic activity in mouse red blood cell assessed as hemolysis incubated for 1 hr; assay type: toxicity, cell-based; conditions: dose 4-256 µg/ml
[51] = Acute toxicity in Kunming mouse assessed as survival rate at 20 mg/kg, ip measured for 7 days; assay type: organism-based; conditions: in vivo, 168 h, time 7 day
[52] = Acute toxicity in Kunming mouse assessed as survival rate at 20 to 31.7 mg/kg, ip measured at 2 hrs; assay type: organism-based; conditions: in vivo, dose 20-31.7 mg/kg
[53] = Acute toxicity in Kunming mouse assessed as survival rate at 31.7 mg/kg, ip measured after 2 hrs; assay type: organism-based; conditions: in vivo
[54] = Acute toxicity in ip dosed Kunming mouse assessed as lethal dose measured upto 7 days; assay type: organism-based; conditions: Kunming, in vivo, time < 7 day

CC(C)CCCCC(=O)N[C@@H](CCN)C(=O)N[C@H](C(=O)N[C@@H](CCN)C(=O)N[C@H]1CCNC(=O)[C@H]([C@@H](C)O)NC(=O)[C@H](CCN)NC(=O)[C@H](CCN)NC(=O)[C@H](CC(C)C)NC(=O)[C@@H](Cc2ccccc2)NC(=O)[C@@H](CCN)NC1=O)[C@@H](C)O ({Heptanoyl(6-Me)}-[Dab]T[Dab][Dab][dDab][dF]L[Dab][Dab]T; lactam 4-C)
Activity [1]: inactive
inhibition [2]: inactive
Activity [3]: Active
Activity [4]: inactive
Activity [5]: Active
Activity [6]: inactive
Activity [7]: Active
Activity [8]: Active
inhibition [9]: Dose-Dependent Effect
Activity [10]: Active
Activity [11]: Active
Activity [12]: Active
Activity [13]: inactive
inhibition [14]: Active
Activity [15]: Active
inhibition [16]: Active
Activity [17]: Active
Activity [18]: Dose-Dependent Effect
Activity [19]: Active
Activity [20]: Active
Activity [21]: Dose-Dependent Effect
Activity [22]: Active
inhibition [23]: Active
Activity [24]: Active
Activity [25]: Active
Activity [26]: Active
Activity [27]: inactive
Activity [28]: Active
Activity [29]: Active
Activity [30]: Active
Activity [31]: Active
Activity [32]: Active
Activity [33]: Active
Activity [34]: Active
Activity [35]: Active
Activity [36]: Active
Activity [37]: Active
Activity [38]: Tde
Activity [39]: Active
Activity [40]: Active
Activity [41]: Tde
Activity [42]: Active
Activity [43]: Active
Activity [44]: Active
Activity [45]: Active
inhibition [46]: Active
Activity [47]: Active
Activity [48]: Active
inhibition [49]: inactive

CC(C)CCCCC(=O)N[C@@H](CCN)C(=O)N[C@H](C(=O)N[C@@H](CCN)C(=O)N[C@H]1CCNC(=O)[C@H]([C@@H](C)O)NC(=O)[C@H](CCN)NC(=O)[C@H](CCN)NC(=O)[C@H](CC(C)C)NC(=O)[C@@H](Cc2ccccc2)NC(=O)[C@H](CCN)NC1=O)[C@@H](C)O ({Heptanoyl(6-Me)}-[Dab]T[Dab][Dab][Dab][dF]L[Dab][Dab]T; lactam 4-C)
HC10 [50]: 512 µg/mL
Activity [51]: Non-Toxic
Activity [52]: Toxic
Activity [53]: Toxic
LD50 at 168 h [54]: 26.7 mg/kg
